Here are results for one compound from ChEMBL document CHEMBL1139146, “An analogue of AICAR with dual inhibitory activity against WNV and HCV NTPase/helicase: synthesis and in vitro screening of 4-carbamoyl-5-(4,6-diamino-2,5-dihydro-1,3,5-triazin-2-yl)imidazole-1-beta-D-ribofuranoside” (Bioorg Med Chem Lett, 2007).

Active and inactive are the calls of the source. No cut-off for these calls is given here. Bounds are passed on as bounds.

A short description of experiment [1]: Inhibition of helicase activity of West Nile virus NTPase/helicase expressed in Vero E6 cells using DNA substrate. In kind it is cell-based.
A short description of experiment [2]: Inhibition of helicase activity of Hepatitis C virus NTPase/helicase expressed in Escherichia coli using DNA substrate. More on the design: species or system Hepacivirus hominis.
A short description of experiment [3]: Inhibition of helicase activity of Japanese encephalitis virus NTPase/helicase expressed in Escherichia coli using DNA substrate.
Experiment [4] is described as follows: Inhibition of helicase activity of Dengue virus NTPase/helicase expressed in Escherichia coli using DNA substrate.
The subject of a further experiment is Vero. Put plainly: Inhibition of helicase activity of West Nile virus NTPase/helicase expressed in Vero E6 cells using RNA substrate. In kind it is cell-based.
Another experiment concerns Hepacivirus hominis. Put plainly: Inhibition of helicase activity of Hepatitis C virus NTPase/helicase expressed in Escherichia coli using RNA substrate.
Experiment [5] relates to Japanese encephalitis virus. Put plainly: Inhibition of helicase activity of Japanese encephalitis virus NTPase/helicase expressed in Escherichia coli using RNA substrate.
The test system of another experiment is Dengue virus. In words: Inhibition of helicase activity of Dengue virus NTPase/helicase expressed in Escherichia coli using RNA substrate.

The IC50 is the point on the concentration scale where inhibition reaches its midpoint. High values mean lower potency, low ones higher potency. With `NC(=O)c1ncn([C@@H]2O[C@H](CO)[C@@H](O)[C@H]2O)c1C1N=C(N)NC(N)=N1`, the half-inhibitory concentration (IC50) in experiment [1] was 23 µM; in experiment [2] it was 37 µM; in experiment [3] it was greater than 500 µM; in experiment [4], greater than 430 µM. The outcome (in the experiment with Vero; in the experiment on Hepacivirus hominis; in experiment [5]; in the experiment with Dengue virus) was inactive.
